Experimental data taken from patent US20190374515A1, “THERAPEUTIC DRUG OR PROPHYLACTIC DRUG FOR DIABETIC NEPHROPATHY” (TEIJIN PHARMA LIMITED, priority 2016, published 2019).

Experiments:
ZDF rats [1] = assay: Urinary KIM-1 excretion (renal tubular damage marker) in ZDF rats (Example 2); conditions: 12th week; for Urinary KIM-1 excretion: mean ± SE
Method: (§2) Podocalyxyn was used as a marker for glomerular damage and Kidney Injury Marker-1 (KIM-1) was used as a marker for renal tubular damage, with a Podocalyxin rELISA Kit (EXOCELL) and a Rat TIM-1/KIM-1/HAVCR Qauntikine ELISA Kit (R&D Systems), respectively.
(§3) As a control group, ZDF rats were orally administered a solvent (0.5% methyl cellulose) once per day for 12 weeks (Vehicle group). Urine was collected for 24 hours at the 12th week of administration, and the urinary albumin concentration, urine Podocalyxyn concentration, urine KIM-1 concentration and urinary volume were measured.

ZDF rats [2] = assay: Urinary Podocalyxyn excretion (glomerular damage marker) in ZDF rats (Example 2); conditions: 12th week; for Urinary Podocalyxyn excretion: mean ± SE
Method: as §2, §3

[3] = Plasma uric acid concentration in ZDF rats by LC-MS/MS (Example 1); assay type: in vivo, rat
Method: (§1) The plasma uric acid level was measured by LC-MS/MS. Compared to the Control group which had normal blood glucose levels, the urinary albumin excretion in the Vehicle group which consisted of ZDF rats that had type II diabetes and had been administered the solvent were increased in time-dependent manner.

[4] = test system: Zucker Diabetic Fatty (ZDF) rats; assay: Urinary albumin excretion in ZDF rats, 13-week oral dosing (Example 1); assay type: in vivo, rat; conditions: for Cumulative urinary albumin excretion (AUC0-12 wks): initial administration until 12th week
Method: as §1

ZDF rats [5] = assay: Urinary albumin excretion in ZDF rats, 12-week oral dosing (Example 2); conditions: 12th week; for Urinary albumin excretion: mean ± SE
Method: as §2, §3

## Cc1nc(-c2ccc(OCC(C)C)c(-n3cnnn3)c2)sc1C(=O)O [Compound 1, 4-Methyl-2-[4-(2-methylpropoxy)-3-(1H-1,2,3,4-tetrazol-1-yl)phenyl]-1,3-thiazole-5-carboxylic acid]
ZDF rats [1]; 0.1 mg/kg oral once per day
  Urinary KIM-1 excretion: 64.3 ± 22.1 ng/day
ZDF rats [1]; 0.3 mg/kg oral once per day
  Urinary KIM-1 excretion: 22.3 ± 2.9 ng/day
ZDF rats [1]; 1 mg/kg oral once per day
  Urinary KIM-1 excretion: 18.1 ± 2.0 ng/day
ZDF rats [1]
  KIM-1, marker for renal tubular damage (in words): reduced
ZDF rats [2]; 0.1 mg/kg oral once per day
  Urinary Podocalyxyn excretion: 32.5 ± 3.3 µg/day
ZDF rats [2]; 0.3 mg/kg oral once per day
  Urinary Podocalyxyn excretion: 22.3 ± 2.9 µg/day
ZDF rats [2]; 1 mg/kg oral once per day
  Urinary Podocalyxyn excretion: 20.6 ± 4.4 µg/day
ZDF rats [2]
  Podocalyxyn, marker for glomerular damage (in words): reduced
[3]; 1 mg/kg and 3 mg/kg doses
  Plasma uric acid concentration compared to the Vehicle group (in words): significantly decreased
[3]; 3 mg/kg oral once per day, 24 hours after administration at 13th week, mean ± SE
  Plasma uric acid concentration: 0.18 ± 0.01 mg/dL
[4]; 1 mg/kg oral once per day, mean ± SE
  Cumulative urinary albumin excretion (AUC0-12 wks): 294.8 ± 38.1
[4]; 1 mg/kg oral once per day, week 0 (before administration), mean ± SE
  Urinary albumin excretion: 3.37 ± 0.83 µg/day
[4]; 1 mg/kg oral once per day, week 2, mean ± SE
  Urinary albumin excretion: 4.78 ± 0.87 µg/day
[4]; 1 mg/kg oral once per day, week 4, mean ± SE
  Urinary albumin excretion: 8.90 ± 1.63 µg/day
[4]; 1 mg/kg oral once per day, week 6, mean ± SE
  Urinary albumin excretion: 21.96 ± 3.79 µg/day
[4]; 1 mg/kg oral once per day, week 8, mean ± SE
  Urinary albumin excretion: 38.74 ± 5.64 µg/day
[4]; 1 mg/kg oral once per day, week 10, mean ± SE
  Urinary albumin excretion: 41.33 ± 5.47 µg/day
[4]; 1 mg/kg oral once per day, week 12, mean ± SE
  Urinary albumin excretion: 60.00 ± 8.58 µg/day
[4]; 3 mg/kg oral once per day, mean ± SE
  Cumulative urinary albumin excretion (AUC0-12 wks): 279.4 ± 27.1
[4]; 3 mg/kg oral once per day, week 0 (before administration), mean ± SE
  Urinary albumin excretion: 3.91 ± 1.06 µg/day
[4]; 3 mg/kg oral once per day, week 2, mean ± SE
  Urinary albumin excretion: 7.64 ± 1.66 µg/day
[4]; 3 mg/kg oral once per day, week 4, mean ± SE
  Urinary albumin excretion: 14.43 ± 2.90 µg/day
[4]; 3 mg/kg oral once per day, week 6, mean ± SE
  Urinary albumin excretion: 21.97 ± 1.75 µg/day
[4]; 3 mg/kg oral once per day, week 8, mean ± SE
  Urinary albumin excretion: 23.38 ± 3.09 µg/day
[4]; 3 mg/kg oral once per day, week 10, mean ± SE
  Urinary albumin excretion: 37.37 ± 4.11 µg/day
[4]; 3 mg/kg oral once per day, week 12, mean ± SE
  Urinary albumin excretion: 65.88 ± 8.33 µg/day
[4]; at both the 1 mg/kg and 3 mg/kg doses
  Urinary albumin excretion compared to the Vehicle group (in words): significantly reduced
ZDF rats [5]; 0.1 mg/kg oral once per day
  Urinary albumin excretion: 96.50 ± 9.61 µg/day
ZDF rats [5]; 0.3 mg/kg and 1 mg/kg doses
  Urinary albumin excretion compared to the Vehicle group (in words): significantly reduced
ZDF rats [5]; 0.3 mg/kg oral once per day
  Urinary albumin excretion: 70.18 ± 60.94 µg/day
